Laboratory results as given in patent US9701709B2 (REATA PHARMACEUTICALS, INC., priority 2012, dated 2017).
Where two headings read alike, the source gives them in different places.

Experiments:
[1] = test system: radiation-induced oral mucositis; assay: Radiation-induced oral mucositis in hamsters
[2] = test system: pyruvate in C2Cl2 muscle cells; assay: Pyruvate levels in C2Cl2 myotubes; type: cell-based, rodent; conditions: differentiated C2Cl2 myotubes; 250 nM or 500 nM, 18 h
Description: Following drug treatment, media was removed and cells were washed with PBS. Cells were lysed in Pyruvate Assay Buffer (Pyruvate Assay Kit, BioVision, Catalog # K609-100). Cell lysates were centrifuged (10 min at 14,000 rpm, 4° C.) and pyruvate levels were measured in the supernatant.

[3] = test system: cigarette smoke-induced COPD; assay: Cigarette smoke-induced COPD in mice; type: in vivo, mouse
Description: (a) KC; (b) IL-6; (c) TNF-α; (d) IFN-γ; (e) RANTES. […] An AIM analog (63355) was tested in the same study for comparison. Asterisks indicate a statistically significant difference form the CS control group.
At the end of the study, lung tissue and BALF were collected for analysis of inflammatory infiltrates and cytokines. […] An AIM analog (63355) was tested in the same study for comparison. 63355 is a compound of the formula: […]
Txnrd, Gst, and […] enzyme activities were measured using commercially available kits from Cayman Chemical (Ann Arbor, Mich.).

[4] = Ocular absorption and distribution in rabbits; type: in vivo, rabbit
Description: Using rabbits, the ocular absorption and systemic pharmacokinetic behavior of RTA 408 was evaluated. RTA 408 was administered topically to the eye once per day for five days.

[5] = test system: STAT3 phosphorylation in HeLa cells; assay: IL-6-induced STAT3 phosphorylation in HeLa; type: cell-based, human; conditions: 1 μM, 6 h pretreatment
[6] = test system: bleomycin-induced pulmonary fibrosis
[7] = test system: C4-2B-Luc and DU145-Luc human prostate cancer tumors; assay: Pilot in vivo prostate tumor model with ionizing radiation (luciferase imaging); set-up: species or system mouse; conditions: 17.5 mg/kg i.p. plus 18 Gy; n=1
Description: The colors indicated by the arrows are indicative of intensity with the intensities being represented by red, yellow, green, and blue in order from highest to lowest intensity.
After the successful results of the in vitro assay, a pilot in vivo assay was carried out using LNCaP/C4-2B and DU145 human prostate cancer engineered to express firefly luciferase (hereafter referred to as C4-2B-Luc and DU145-Luc, respectively). Of note, both of these cell lines grow in an androgen-independent fashion. Cells were cultured in RPMI 1640 supplemented with 10% FBS. Cells were harvested using TrypLE Express (Invitrogen) and washed in PBS and counted. Cells were reconstituted in PBS to arrive at a final concentration of 3×10^6 cells per 30 μL (unless otherwise stated) and aliquoted in separate tubes. Growth factor-reduced Matrigel (BD Bioscience) was thawed overnight at +4° C. and transferred into the tubes in 30 μL aliquots. The cell/Matrigel solutions were transferred to the vivarium and mixed right before injection at a 1:1 ratio. Each mouse (n=1 per group for a total of three animals) received a single subcutaneous injection of the tumor cells. Tumors were pre-established for 4 weeks. […] Tumor progression was monitored weekly via live imaging. […] For standardization, minimal exposure time necessary to image control tumor was determined and all animals were imaged under these conditions. […]

[8] = test system: acute radiation dermatitis; assay: Acute radiation dermatitis in BALB/c mice; type: in vivo, mouse
[9] = 3 and 10 mg/kg daily for 28 days

## CC1(C)CC[C@]2(NC(=O)C(C)(F)F)CC[C@]3(C)[C@H](C(=O)C=C4[C@@]5(C)C=C(C#N)C(=O)C(C)(C)[C@@H]5CC[C@]43C)[C@@H]2C1 [RTA 408, N-((4aS,6aR,6bS,8aR,12aS,14aR,14bS)-11-cyano-2,2,6a,6b,9,9,12a-heptamethyl-10,14-dioxo-1,2,3,4,4a,5,6,6a,6b,7,8,8a,9,10,12a,14,14a,14b-octadecahydropicen-4a-yl)-2,2-difluoropropanamide]
[1]; 30 mg/kg and 100 mg/kg BID×20
  Reduction in ulceration: ≤ 36%
[1]; 100 mg/kg
  Euthanasia due to weight loss in excess of 20%: two out of eight hamsters in the 100 mg/kg dose group were euthanized on Day 2
[1]; 30 and 100 mg/kg twice daily
  Duration of ulcerative mucositis: significant reduction in the duration of ulcerative mucositis
[2]
  Intracellular pyruvate levels: increased intracellular pyruvate levels in a dose-dependent manner
[3]; 30 mg/kg
  Lung Txnrd enzyme activity: Txnrd enzyme activity was also induced
[3]; 3, 10, or 30 mg/kg
  Lung NQO1 enzyme activity (decreased by cigarette smoke): rescued this loss
[3]; doses as low as 3 mg/kg daily for two weeks
  Pro-inflammatory cytokines incl. KC and TNF-α: significant suppression of pro-inflammatory cytokines
[4]; ocular topical administration
  Ocular tissue distribution: highest concentrations of the compound were found in the cornea, retina, or iris
[4]; topical to the eye once per day for five days
  Plasma concentration after ocular administration: lower plasma concentration of RTA 408 relative to when RTA 408 is administered orally
[5]
  IL-6-induced phosphorylation of STAT3: inhibited phosphorylation of STAT3 induced by IL-6
[6]; 3 mg/kg
  Animals with Mild trichrome staining intensity: 0
  Animals with Minimal trichrome staining intensity: 0
  Animals with Moderate trichrome staining intensity: 7
[6]; 10 mg/kg
  Animals with Mild trichrome staining intensity: 4
  Animals with Minimal trichrome staining intensity: 3
  Animals with Moderate trichrome staining intensity: 1
[6]; 30 mg/kg daily oral gavage
  Tolerability of 30-mg/kg dose (stopped on day 14): excessive dehydration and diarrhea
[6]; [9]
  PMN cell infiltration into the lungs: significantly suppressed polymorphonuclear (PMN) cell infiltration into the lungs
  Reduction in hydroxyproline deposition: 10%-20%
[6]; rats exposed to bleomycin
  Lung Nrf2 target enzyme activity: significantly and dose-dependently increased NQO1, Txnrd, Gsr, and Gst enzyme activity
[7]
  Tumor image (luciferase), RTA 408 plus ionizing radiation: no visible tumor on Day 21
[8]; oral 3 mg/kg
  % animal-days >=2: 32.5%
  % animal-days >=3: 1.3%
  % mice scored above 3 in clinical dermatitis exam, Day 16: 10%
  % mice scored above 3 in clinical dermatitis exam, Day 18: 10%
  % mice scored above 3 in clinical dermatitis exam, Day 20: 0%
  % mice scored above 3 in clinical dermatitis exam, Day 22: 0%
  % mice scored above 3 in clinical dermatitis exam, Day 24: 0%
  % mice scored above 3 in clinical dermatitis exam, Day 26: 0%
  % mice scored above 3 in clinical dermatitis exam, Day 28: 0%
[8]; oral 10 mg/kg
  % animal-days >=2: 33.8%
  % animal-days >=3: 4.1%
  % mice scored above 3 in clinical dermatitis exam, Day 16: 10%
  % mice scored above 3 in clinical dermatitis exam, Day 18: 25%
  % mice scored above 3 in clinical dermatitis exam, Day 20: 30%
  % mice scored above 3 in clinical dermatitis exam, Day 22: 0%
  % mice scored above 3 in clinical dermatitis exam, Day 24: 0%
  % mice scored above 3 in clinical dermatitis exam, Day 26: 0%
  % mice scored above 3 in clinical dermatitis exam, Day 28: 0%
[8]; oral 30 mg/kg
  % animal-days >=2: 28.8%
  % animal-days >=3: 2.5%
  % mice scored above 3 in clinical dermatitis exam, Day 16: 10%
  % mice scored above 3 in clinical dermatitis exam, Day 18: 20%
  % mice scored above 3 in clinical dermatitis exam, Day 20: 10%
  % mice scored above 3 in clinical dermatitis exam, Day 22: 0%
  % mice scored above 3 in clinical dermatitis exam, Day 24: 0%
  % mice scored above 3 in clinical dermatitis exam, Day 26: 0%
  % mice scored above 3 in clinical dermatitis exam, Day 28: 0%
[8]; topical 0.01% in sesame oil
  % animal-days >=2: 14.4%
  % animal-days >=3: 0.0%
  % mice scored above 2 in clinical dermatitis exam, Day 12: 0.0%
  % mice scored above 2 in clinical dermatitis exam, Day 14: 0.0%
  % mice scored above 2 in clinical dermatitis exam, Day 16: 20.0%
  % mice scored above 2 in clinical dermatitis exam, Day 18: 50.0%
  % mice scored above 2 in clinical dermatitis exam, Day 20: 10.0%
  % mice scored above 2 in clinical dermatitis exam, Day 22: 40.0%
  % mice scored above 2 in clinical dermatitis exam, Day 24: 40.0%
  % mice scored above 2 in clinical dermatitis exam, Day 26: 40.0%
  % mice scored above 2 in clinical dermatitis exam, Day 28: 20.0%
  % mice scored above 2 in clinical dermatitis exam, Day 30: 10.0%
[8]; topical 0.1% in sesame oil
  % animal-days >=2: 16.3%
  % animal-days >=3: 0.0%
  % mice scored above 2 in clinical dermatitis exam, Day 12: 7.1%
  % mice scored above 2 in clinical dermatitis exam, Day 14: 10.0%
  % mice scored above 2 in clinical dermatitis exam, Day 16: 20.0%
  % mice scored above 2 in clinical dermatitis exam, Day 18: 80.0%
  % mice scored above 2 in clinical dermatitis exam, Day 20: 60.0%
  % mice scored above 2 in clinical dermatitis exam, Day 22: 40.0%
  % mice scored above 2 in clinical dermatitis exam, Day 24: 30.0%
  % mice scored above 2 in clinical dermatitis exam, Day 26: 10.0%
  % mice scored above 2 in clinical dermatitis exam, Day 28: 0.0%
  % mice scored above 2 in clinical dermatitis exam, Day 30: 0.0%
[8]; topical 1.0% in sesame oil
  % animal-days >=2: 9.7%
  % animal-days >=3: 0.0%
  % mice scored above 2 in clinical dermatitis exam, Day 12: 10.7%
  % mice scored above 2 in clinical dermatitis exam, Day 14: 20.0%
  % mice scored above 2 in clinical dermatitis exam, Day 16: 10.0%
  % mice scored above 2 in clinical dermatitis exam, Day 18: 70.0%
  % mice scored above 2 in clinical dermatitis exam, Day 20: 30.0%
  % mice scored above 2 in clinical dermatitis exam, Day 22: 10.0%
  % mice scored above 2 in clinical dermatitis exam, Day 24: 0.0%
  % mice scored above 2 in clinical dermatitis exam, Day 26: 0.0%
  % mice scored above 2 in clinical dermatitis exam, Day 28: 0.0%
  % mice scored above 2 in clinical dermatitis exam, Day 30: 0.0%
